Each compound was assayed against T1, human glucocorticoid receptor (GR) complex (Homo sapiens, UniProt P04150) (assay: Glucocorticoid receptor competitive binding assay (fluorescence polarization)). Conditions: competition with TAMRA-labeled dexamethasone, read-out: potent activity (IC50) in the GR binding assay.
T1 construct: made in house; host or cells: insect expression system (baculovirus lysate)
T1 sequence (P04150 1-777): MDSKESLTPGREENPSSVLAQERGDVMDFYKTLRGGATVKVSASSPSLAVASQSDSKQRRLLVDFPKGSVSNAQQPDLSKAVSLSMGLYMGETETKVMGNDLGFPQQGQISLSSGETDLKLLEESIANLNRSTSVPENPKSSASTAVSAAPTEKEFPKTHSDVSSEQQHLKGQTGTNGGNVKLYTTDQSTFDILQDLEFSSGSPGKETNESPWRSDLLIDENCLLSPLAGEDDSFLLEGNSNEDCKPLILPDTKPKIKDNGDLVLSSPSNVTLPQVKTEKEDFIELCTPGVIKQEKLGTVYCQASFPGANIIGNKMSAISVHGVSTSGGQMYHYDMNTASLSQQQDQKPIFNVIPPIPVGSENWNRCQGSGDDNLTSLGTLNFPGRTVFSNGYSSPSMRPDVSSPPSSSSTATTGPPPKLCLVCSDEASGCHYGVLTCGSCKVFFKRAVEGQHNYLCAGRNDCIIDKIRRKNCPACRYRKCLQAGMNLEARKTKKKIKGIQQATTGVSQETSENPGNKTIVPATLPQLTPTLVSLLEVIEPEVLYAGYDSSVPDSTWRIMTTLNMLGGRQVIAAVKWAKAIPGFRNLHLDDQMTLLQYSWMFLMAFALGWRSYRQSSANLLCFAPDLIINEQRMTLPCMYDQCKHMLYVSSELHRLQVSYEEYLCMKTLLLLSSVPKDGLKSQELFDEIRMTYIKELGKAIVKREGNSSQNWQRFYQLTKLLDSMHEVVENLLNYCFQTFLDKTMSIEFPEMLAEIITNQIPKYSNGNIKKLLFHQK
Procedure: Compounds of the invention were evaluated for binding to the steroid receptor by a fluorescence polarization competitive binding assay. Detailed descriptions for preparation of recombinant glucocorticoid receptor (GR) complex used in the assay is described in U.S. Patent Application Publication No. US 2003/0017503, filed May 20, 2002, and incorporated herein by reference in its entirety. Preparation of the tetramethylrhodamine (TAMRA)-labeled dexamethasone probe was accomplished using a standard literature procedure (M. Pons et al., J. Steroid Biochem., 1985, 22, pp. 267-273).
The affinity of the probe for the steroid receptor was then determined in a titration experiment. The fluorescence polarization value of the probe in assay buffer was measured on an SLM-8100 fluorometer using the excitation and emission maximum values described above. Aliquots of expression vector lysate were added and fluorescence polarization was measured after each addition until no further change in polarization value was observed. Non-linear least squares regression analysis was used to calculate the dissociation constant of the probe from the polarization values obtained for lysate binding to the probe.
This assay uses fluorescence polarization (FP) to quantitate the ability of test compounds to compete with tetramethylrhodamine (TAMRA)-labeled dexamethasone for binding to a human glucocorticoid receptor (GR) complex prepared from an insect expression system. The assay buffer was: 10 mM TES, 50 mM KCl, 20 mM Na2MoO4.2H2O, 1.5 mM EDTA, 0.04% w/v CHAPS, 10% v/v glycerol, 1 mM dithiothreitol, pH 7.4. Test compounds were dissolved to 1 mM in neat DMSO and then further diluted to 10× assay concentration in assay buffer supplemented with 10% v/v DMSO. Test compounds were serially diluted at 10× assay concentrations in 10% DMSO-containing buffer in 96-well polypropylene plates. Binding reaction mixtures were prepared in 96-well black Dynex microtiter plates by sequential addition of the following assay components to each well: 15 μL of 10× test compound solution, 85 μL of GR-containing baculovirus lysate diluted 1:170 in assay buffer, and 50 μL of 15 nM TAMRA-labeled dexamethasone. Positive controls were reaction mixtures containing no test compound; negative controls (blanks) were reaction mixtures containing 0.7 μM to 2 μM dexamethasone. The binding reactions were incubated for 1 hour at room temperature and then read for fluorescence polarization in the LJL Analyst set to 550 nm excitation and 580 nm emission, with the Rhodamine 561 dichroic mirror installed. IC50 values were determined by iterative non-linear curve fitting of the FP signal data to a 4-parameter logistic equation.

Row | SMILES | IC50 [µM]
1 | Cc1cc(C)c(S(=O)(=O)NC(COc2cc(F)ccc2Br)C(F)(F)F)c(C)c1 (stereo not drawn) [N-[1-(2-Bromo-5-fluorophenoxymethyl)-2,2,2-trifluoroethyl]-2,4,6-trimethylbenzenesulfonamide] | ≤ 0.1
2 | Cc1cc(C)c(S(=O)(=O)NC(CNc2cc(Cl)ccc2C)C(F)(F)F)c(C)c1 (stereo not drawn) [N-{1-[(5-Chloro-2-methylphenylamino)methyl]-2,2,2-trifluoroethyl}-2,4,6-trimethylbenzenesulfonamide] | ≤ 0.1
3 | Cc1ccc(NCC(NS(=O)(=O)c2c(C)cc(C)cc2C)C(F)(F)F)c(C)c1 (stereo not drawn) [N-{1-[(2,4-Dimethylphenylamino)methyl]-2,2,2-trifluoroethyl}-2,4,6-trimethylbenzenesulfonamide] | ≤ 0.1
4 | Cc1cc(C)c(S(=O)(=O)NC(COc2cccc(Cl)c2)C(F)(F)F)c(C)c1 (stereo not drawn) [N-[1-(3-Chlorophenoxymethyl)-2,2,2-trifluoroethyl]-2,4,6-trimethylbenzenesulfonamide] | ≤ 0.1
5 | COc1ccc(NCC(NS(=O)(=O)c2c(C)cc(C)cc2C)C(F)(F)F)c(C)c1 (stereo not drawn) [2,4,6-Trimethyl-N-{2,2,2-trifluoro-1-[(4-methoxy-2-methylphenylamino)methyl]ethyl}benzenesulfonamide] | ≤ 0.1
6 | Cc1cc(C)c(S(=O)(=O)NC(COc2ccc(Cl)cc2Cl)C(F)(F)F)c(C)c1 (stereo not drawn) [N-[1-(2,4-Dichlorophenoxymethyl)-2,2,2-trifluoroethyl]-2,4,6-trimethylbenzenesulfonamide] | ≤ 0.1
7 | Cc1cc(C)c(S(=O)(=O)NC(CNc2ccccc2Cl)C(F)(F)F)c(C)c1 (stereo not drawn) [N-{1-[(2-Chlorophenylamino)methyl]-2,2,2-trifluoroethyl}-2,4,6-trimethylbenzenesulfonamide] | ≤ 0.1
8 | CC[C@@](C)(CN(CCC#N)c1cccc2ccccc12)NS(=O)(=O)c1c(C)cc(C)cc1C [N—((S)-1-{[(2-Cyanoethyl)naphthalen-1-ylamino]methyl}-1-methylpropyl)-2,4,6-trimethylbenzenesulfonamide] | ≤ 0.1
9 | Cc1cc(C)c(S(=O)(=O)NC(CSc2ccc(Cl)cc2)C(F)(F)F)c(C)c1 (stereo not drawn) [N-[1-(4-Chlorophenylsulfanylmethyl)-2,2,2-trifluoroethyl]-2,4,6-trimethylbenzenesulfonamide] | ≤ 0.1
10 | Cc1cc(C)c(S(=O)(=O)NC(COc2ccccc2C(F)(F)F)C(F)(F)F)c(C)c1 (stereo not drawn) [2,4,6-Trimethyl-N-[2,2,2-trifluoro-1-(2-trifluoromethylphenoxymethyl)ethyl]benzenesulfonamide] | ≤ 0.1
11 | Cc1cc(C)c(S(=O)(=O)NC(CSc2cc(Cl)ccc2Cl)C(F)(F)F)c(C)c1 (stereo not drawn) [N-[1-(2,5-Dichlorophenylsulfanylmethyl)-2,2,2-trifluoroethyl]-2,4,6-trimethylbenzenesulfonamide] | ≤ 0.1
12 | CCCN(CC(NS(=O)(=O)c1c(C)cc(C)cc1C)C(F)(F)F)c1ccccc1 (stereo not drawn) | ≤ 0.1
13 | Cc1cc(C)c(S(=O)(=O)NC(CNc2ccc(F)cc2F)C(F)(F)F)c(C)c1 (stereo not drawn) [N-{1-[(2,4-Difluorophenylamino)methyl]-2,2,2-trifluoroethyl}-2,4,6-trimethylbenzenesulfonamide] | ≤ 0.1
14 | Cc1cc(C)c(S(=O)(=O)NC(COc2cccc3ccccc23)C(F)(F)F)c(C)c1 (stereo not drawn) [2,4,6-Trimethyl-N-[2,2,2-trifluoro-1-(naphthalen-1-yloxymethyl)ethyl]benzenesulfonamide] | ≤ 0.1
15 | Cc1cc(C)c(S(=O)(=O)NC(COc2ccccc2C)C(F)(F)F)c(C)c1 (stereo not drawn) [2,4,6-Trimethyl-N-(2,2,2-trifluoro-1-o-tolyloxymethylethyl)benzenesulfonamide] | ≤ 0.1
16 | Cc1cc(C)c(S(=O)(=O)NC(CNc2c(Cl)cc(Cl)cc2Cl)C(F)(F)F)c(C)c1 (stereo not drawn) [2,4,6-Trimethyl-N-{2,2,2-trifluoro-1-[(2,4,6-trichlorophenylamino)methyl]ethyl}benzenesulfonamide] | ≤ 0.1
17 | Cc1cc(C)c(S(=O)(=O)NC(CNc2ccc(C)cc2F)C(F)(F)F)c(C)c1 (stereo not drawn) [2,4,6-Trimethyl-N-{2,2,2-trifluoro-1-[(2-fluoro-4-methylphenylamino)methyl]ethyl}benzenesulfonamide] | ≤ 0.1
18 | Cc1cc(C)c(S(=O)(=O)NC(CSc2ccc(Cl)cc2Cl)C(F)(F)F)c(C)c1 (stereo not drawn) [N-[1-(2,4-Dichlorophenylsulfanylmethyl)-2,2,2-trifluoroethyl]-2,4,6-trimethylbenzenesulfonamide] | ≤ 0.1
19 | Cc1cc(C)c(S(=O)(=O)NC(COc2cccc3c2CCCC3=O)C(F)(F)F)c(C)c1 (stereo not drawn) [2,4,6-Trimethyl-N-[2,2,2-trifluoro-1-(5-oxo-5,6,7,8-tetrahydronaphthalen-1-yloxymethyl)ethyl]benzenesulfonamide] | ≤ 0.1
20 | Cc1cc(C)c(S(=O)(=O)NC(CNc2cccc(-c3cnco3)c2)C(F)(F)F)c(C)c1 (stereo not drawn) [2,4,6-Trimethyl-N-{2,2,2-trifluoro-1-[(3-oxazol-5-ylphenylamino)methyl]ethyl}benzenesulfonamide] | ≤ 0.1
21 | Cc1cc(C)c(S(=O)(=O)NC(COc2cccc(C(F)(F)F)c2)C(F)(F)F)c(C)c1 (stereo not drawn) [2,4,6-Trimethyl-N-[2,2,2-trifluoro-1-(3-trifluoromethylphenoxymethyl)ethyl]benzenesulfonamide] | ≤ 0.1
22 | Cc1cc(C)c(S(=O)(=O)NC(CSc2cccc(Cl)c2)C(F)(F)F)c(C)c1 (stereo not drawn) [N-[1-(3-Chlorophenylsulfanylmethyl)-2,2,2-trifluoroethyl]-2,4,6-trimethylbenzenesulfonamide] | ≤ 0.1
23 | Cc1cc(C)cc(OCC(NS(=O)(=O)c2c(C)cc(C)cc2C)C(F)(F)F)c1 (stereo not drawn) [N-[1-(3,5-Dimethylphenoxymethyl)-2,2,2-trifluoroethyl]-2,4,6-trimethylbenzenesulfonamide] | ≤ 0.1
24 | Cc1cc(C)c(S(=O)(=O)NC(COc2ccc(Cl)c(C(F)(F)F)c2)C(F)(F)F)c(C)c1 (stereo not drawn) [N-[1-(4-Chloro-3-trifluoromethylphenoxymethyl)-2,2,2-trifluoroethyl]-2,4,6-trimethylbenzenesulfonamide] | ≤ 0.1
25 | Cc1cc(C)c(S(=O)(=O)NC(CNc2cccc(C)c2C#N)C(F)(F)F)c(C)c1 (stereo not drawn) [N-{1-[(2-Cyano-3-methylphenylamino)methyl]-2,2,2-trifluoroethyl}-2,4,6-trimethylbenzenesulfonamide] | ≤ 0.1
26 | Cc1cc(C)c(S(=O)(=O)NC(CSc2ccccc2OC(F)(F)F)C(F)(F)F)c(C)c1 (stereo not drawn) | ≤ 0.1
27 | Cc1cc(C)c(S(=O)(=O)NC(CSc2ccc(F)cc2)C(F)(F)F)c(C)c1 (stereo not drawn) [2,4,6-Trimethyl-N-[2,2,2-trifluoro-1-(4-fluorophenylsulfanylmethyl)ethyl]benzenesulfonamide] | ≤ 0.1
28 | Cc1cc(C)c(S(=O)(=O)NC(CNc2cc(C(F)(F)F)ccc2Cl)C(F)(F)F)c(C)c1 (stereo not drawn) [N-{1-[(2-Chloro-5-trifluoromethylphenylamino)methyl]-2,2,2-trifluoroethyl}-2,4,6-trimethylbenzenesulfonamide] | ≤ 0.1
29 | Cc1cc(C)c(S(=O)(=O)NC(CSc2ccc(Cl)c(Cl)c2)C(F)(F)F)c(C)c1 (stereo not drawn) [N-[1-(3,4-Dichlorophenylsulfanylmethyl)-2,2,2-trifluoroethyl]-2,4,6-trimethylbenzenesulfonamide] | ≤ 0.1
30 | Cc1cc(C)c(S(=O)(=O)NC(CSc2ccc(F)cc2Cl)C(F)(F)F)c(C)c1 (stereo not drawn) [N-[1-(2-Chloro-4-fluorophenylsulfanylmethyl)-2,2,2-trifluoroethyl]-2,4,6-trimethylbenzenesulfonamide] | ≤ 0.1

Source: patent US20100048950A1 (BOEHRINGER INGELHEIM INTERNATIONAL GMBH, priority 2007, published 2010)
